Experiments:
[1] = target: T1, Serine/threonine-protein kinase PLK1 (Homo sapiens, UniProt P53350); assay: Inhibition of human PLK1 assessed as residual activity at 10 uM by kinome selectivity profiling analysis relative to control
Cytochrome P450 2C19 = Cytochrome P450 2C19 (Homo sapiens, UniProt P33261); assay: Inhibition of CYP2C19 in human liver microsomes using S-mephenytoin as substrate preincubated with compound followed by substrate addition measured after 10 mins in presence of NADPH by LC-MS/MS analysis; assay type: ADME, Microsome
Sequence of Cytochrome P450 2C19 (P33261 whole entry): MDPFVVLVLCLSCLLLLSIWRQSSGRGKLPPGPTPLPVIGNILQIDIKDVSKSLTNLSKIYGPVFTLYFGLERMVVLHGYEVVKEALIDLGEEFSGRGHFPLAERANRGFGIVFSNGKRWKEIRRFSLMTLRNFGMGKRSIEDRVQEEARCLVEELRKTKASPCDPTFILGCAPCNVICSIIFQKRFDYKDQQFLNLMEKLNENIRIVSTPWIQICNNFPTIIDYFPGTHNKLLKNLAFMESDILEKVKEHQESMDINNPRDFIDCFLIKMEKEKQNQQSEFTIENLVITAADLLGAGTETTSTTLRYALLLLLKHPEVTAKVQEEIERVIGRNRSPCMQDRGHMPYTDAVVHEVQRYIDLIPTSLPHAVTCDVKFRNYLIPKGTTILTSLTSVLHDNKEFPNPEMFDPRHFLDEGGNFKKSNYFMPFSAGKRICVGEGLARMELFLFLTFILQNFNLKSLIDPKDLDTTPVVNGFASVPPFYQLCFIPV

[2] = Cmax in C57BL/6 mouse at 10 mg/kg, po measured for 0.5 to […] htr by LC-MS/MS analysis; assay type: ADME, organism-based; settings: in vivo, time 0.5-12 hrs
[3] = Acute toxicity in mouse assessed as damage in lung at 500 mg/kg, IG qd treated for 7 days by H and E staining based analysis; assay type: organism-based; settings: in vivo, po, 168 h, time 7 day
[4] = AUC (0 to infinity) in C57BL/6 mouse at 10 mg/kg, po measured for 0.5 to 12 htr by LC-MS/MS analysis; assay type: ADME, organism-based; settings: in vivo, time 0.5-12 hrs
[5] = Metabolic stability in dog liver microsomes assessed as half life preincubated for 5 mins followed by NADPH addition by LC-MS/MS analysis; assay type: ADME, Canis lupus familiaris, Microsome
[6] = target: T1, Serine/threonine-protein kinase PLK1; assay: Inhibition of human PLK1 using ATF2 as substrate incubated for 40 mins in presence of [gamma-33P]ATP/Mg acetate by scintillation counting analysis
[7] = target: Eukaryotic translation initiation factor 2-alpha kinase 3 (Homo sapiens) (UniProt Q9NZJ5); assay: Inhibition of human PEK assessed as residual activity at 10 uM by kinome selectivity profiling analysis relative to control
Sequence of Eukaryotic translation initiation factor 2-alpha kinase 3 (Homo sapiens) (Q9NZJ5 whole entry): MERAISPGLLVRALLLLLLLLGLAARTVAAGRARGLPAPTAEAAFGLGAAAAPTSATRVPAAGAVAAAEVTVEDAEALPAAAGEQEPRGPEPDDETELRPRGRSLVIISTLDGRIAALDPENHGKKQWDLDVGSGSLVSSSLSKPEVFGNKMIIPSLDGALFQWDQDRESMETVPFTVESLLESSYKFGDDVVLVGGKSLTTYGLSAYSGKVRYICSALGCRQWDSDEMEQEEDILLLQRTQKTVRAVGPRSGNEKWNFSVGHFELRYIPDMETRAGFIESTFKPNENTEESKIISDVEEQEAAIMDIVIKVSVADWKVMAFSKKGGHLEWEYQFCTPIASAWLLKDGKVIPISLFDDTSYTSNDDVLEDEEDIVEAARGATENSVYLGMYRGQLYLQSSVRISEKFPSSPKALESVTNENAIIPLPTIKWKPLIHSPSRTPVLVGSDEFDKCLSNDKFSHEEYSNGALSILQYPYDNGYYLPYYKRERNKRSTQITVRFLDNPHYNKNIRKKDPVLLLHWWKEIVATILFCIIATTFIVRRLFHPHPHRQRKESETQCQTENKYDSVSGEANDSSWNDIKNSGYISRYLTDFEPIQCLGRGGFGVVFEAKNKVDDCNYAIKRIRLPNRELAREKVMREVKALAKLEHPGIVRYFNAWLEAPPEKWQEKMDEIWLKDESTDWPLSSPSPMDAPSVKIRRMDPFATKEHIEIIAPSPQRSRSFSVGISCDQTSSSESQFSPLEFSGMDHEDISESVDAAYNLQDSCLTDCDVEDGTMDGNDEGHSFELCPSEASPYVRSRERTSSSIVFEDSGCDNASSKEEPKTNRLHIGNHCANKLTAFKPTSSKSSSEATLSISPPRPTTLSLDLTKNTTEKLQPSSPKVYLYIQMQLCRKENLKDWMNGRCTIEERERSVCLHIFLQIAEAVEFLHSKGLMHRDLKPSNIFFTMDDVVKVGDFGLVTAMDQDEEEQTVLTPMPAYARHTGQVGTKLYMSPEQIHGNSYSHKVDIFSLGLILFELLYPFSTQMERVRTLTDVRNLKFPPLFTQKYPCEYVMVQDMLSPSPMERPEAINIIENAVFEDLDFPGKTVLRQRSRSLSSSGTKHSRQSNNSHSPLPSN

HL-60 = assay: cells; settings: Homo sapiens
[8] = Acute hematopoietic toxicity in mouse assessed as effect on red blood cells at 500 mg/kg, IG qd treated for 7 days; assay type: organism-based; settings: in vivo, po, 168 h, time 7 day
[9] = Half life in C57BL/6 mouse at 1 mg/kg, iv measured for 0.5 to 12 htr by LC-MS/MS analysis; assay type: ADME, organism-based; settings: in vivo, time 0.5-12 hrs
Cytochrome P450 2B6 = Cytochrome P450 2B6 (Homo sapiens, UniProt P20813); assay: Inhibition of CYP2B6 in human liver microsomes using bupropion as substrate preincubated with compound followed by substrate addition measured after 10 mins in presence of NADPH by LC-MS/MS analysis; assay type: ADME, Microsome
[10] = Tmax in C57BL/6 mouse at 1 mg/kg, iv measured for 0.5 to 12 htr by LC-MS/MS analysis; assay type: ADME, organism-based; settings: in vivo, time 0.5-12 hrs
Cytochrome P450 2C9 = Cytochrome P450 2C9 (Homo sapiens, UniProt P11712); assay: Inhibition of CYP2C9 in human liver microsomes using diclofenac as substrate preincubated with compound followed by substrate addition measured after 10 mins in presence of NADPH by LC-MS/MS analysis; assay type: ADME, Microsome
Sequence of Cytochrome P450 2C9 (P11712 whole entry): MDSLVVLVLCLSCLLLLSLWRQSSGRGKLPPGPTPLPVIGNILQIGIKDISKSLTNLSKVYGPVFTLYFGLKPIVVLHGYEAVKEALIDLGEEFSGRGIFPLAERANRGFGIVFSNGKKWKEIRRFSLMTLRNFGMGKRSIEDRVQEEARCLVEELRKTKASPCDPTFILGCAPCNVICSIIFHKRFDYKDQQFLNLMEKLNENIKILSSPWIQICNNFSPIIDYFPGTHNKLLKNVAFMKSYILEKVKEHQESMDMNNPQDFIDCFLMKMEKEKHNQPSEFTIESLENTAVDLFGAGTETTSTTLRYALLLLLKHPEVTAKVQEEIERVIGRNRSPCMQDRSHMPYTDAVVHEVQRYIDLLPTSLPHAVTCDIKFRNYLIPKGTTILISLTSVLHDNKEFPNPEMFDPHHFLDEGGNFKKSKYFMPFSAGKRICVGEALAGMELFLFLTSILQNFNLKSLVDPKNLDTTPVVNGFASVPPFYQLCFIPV

K562 [11] = assay: Antitumor activity against human K562 cells xenografted in BALB/c mouse assessed as suppression of tumor growth administered intragastrically for 11 days treated on every 3 to 4 days; assay type: functional, cell-based; settings: dose 10-20 mg/kg, route ig, time 11.0 day
CCRF-CEM = assay: cells; settings: Homo sapiens
[12] = Acute toxicity in mouse assessed as body weight change at 500 mg/kg, IG qd treated for 7 days; assay type: organism-based; settings: in vivo, po, 168 h, time 7 day
[13] = target: Serine/threonine-protein kinase PLK2 (Homo sapiens, UniProt Q9NYY3); assay: Inhibition of human PLK2 using ATF2 as substrate incubated for 40 mins in presence of [gamma-33P]ATP/Mg acetate by scintillation counting analysis
Sequence of Serine/threonine-protein kinase PLK2 (Q9NYY3 whole entry): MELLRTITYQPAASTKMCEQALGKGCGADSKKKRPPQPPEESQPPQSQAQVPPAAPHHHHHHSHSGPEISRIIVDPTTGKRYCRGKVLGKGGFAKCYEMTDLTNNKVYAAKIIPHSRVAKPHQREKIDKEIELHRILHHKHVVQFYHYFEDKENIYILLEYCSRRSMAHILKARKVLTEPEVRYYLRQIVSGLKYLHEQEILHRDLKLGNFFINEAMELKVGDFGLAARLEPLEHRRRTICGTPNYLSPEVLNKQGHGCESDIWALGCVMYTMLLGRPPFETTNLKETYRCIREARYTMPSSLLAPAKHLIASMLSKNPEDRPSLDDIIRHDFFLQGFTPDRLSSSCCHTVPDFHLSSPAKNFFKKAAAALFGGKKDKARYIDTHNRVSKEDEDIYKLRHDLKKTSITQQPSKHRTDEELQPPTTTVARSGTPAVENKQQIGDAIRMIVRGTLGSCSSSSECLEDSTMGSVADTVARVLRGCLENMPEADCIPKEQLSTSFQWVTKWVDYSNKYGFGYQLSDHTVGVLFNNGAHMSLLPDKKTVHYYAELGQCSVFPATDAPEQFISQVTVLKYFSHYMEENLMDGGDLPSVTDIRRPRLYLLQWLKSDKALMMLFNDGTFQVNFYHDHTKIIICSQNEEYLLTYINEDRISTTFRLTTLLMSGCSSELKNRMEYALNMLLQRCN

[14] = target: Serine/threonine-protein kinase PLK3 (Homo sapiens, UniProt Q9H4B4); assay: Inhibition of human PLK3 assessed as residual activity at 10 uM by kinome selectivity profiling analysis relative to control
Sequence of Serine/threonine-protein kinase PLK3 (Q9H4B4 whole entry, looked up): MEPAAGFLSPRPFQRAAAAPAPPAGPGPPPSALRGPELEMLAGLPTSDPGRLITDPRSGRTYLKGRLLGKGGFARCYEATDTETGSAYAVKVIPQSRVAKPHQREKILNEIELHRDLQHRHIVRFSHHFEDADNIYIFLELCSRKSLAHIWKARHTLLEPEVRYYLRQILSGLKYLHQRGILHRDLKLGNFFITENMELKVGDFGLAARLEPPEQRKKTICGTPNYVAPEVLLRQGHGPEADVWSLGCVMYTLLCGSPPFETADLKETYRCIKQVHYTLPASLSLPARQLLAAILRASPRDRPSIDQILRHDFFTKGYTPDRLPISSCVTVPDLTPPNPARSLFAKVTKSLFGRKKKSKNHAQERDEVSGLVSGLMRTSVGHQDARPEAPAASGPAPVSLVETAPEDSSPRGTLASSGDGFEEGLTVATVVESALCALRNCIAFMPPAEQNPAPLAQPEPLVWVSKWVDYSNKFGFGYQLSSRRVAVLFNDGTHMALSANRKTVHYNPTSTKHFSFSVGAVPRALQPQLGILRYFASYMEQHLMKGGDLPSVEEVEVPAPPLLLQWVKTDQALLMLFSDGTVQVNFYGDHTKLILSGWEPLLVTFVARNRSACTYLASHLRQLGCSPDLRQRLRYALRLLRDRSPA

[15] = MRT (0 to t) in C57BL/6 mouse at 10 mg/kg, po measured for 0.5 to 12 htr by LC-MS/MS analysis; assay type: ADME, organism-based; settings: in vivo, time 0.5-12 hrs
[16] = Clearance in C57BL/6 mouse at 1 mg/kg, iv measured for 0.5 to […] htr by LC-MS/MS analysis; assay type: ADME, organism-based; settings: in vivo, time 0.5-12 hrs
[17] = target: Voltage-gated inwardly rectifying potassium channel KCNH2 (Homo sapiens, UniProt Q12809); assay: Inhibition of hERG transfected in CHO cells; assay type: toxicity, cell-based
[18] = target: Serine/threonine-protein kinase MRCK alpha (Homo sapiens) (UniProt Q5VT25); assay: Inhibition of human MRCK-alpha assessed as residual activity at 10 uM by kinome selectivity profiling analysis relative to control
[19] = target: Calcium/calmodulin-dependent protein kinase kinase 2 (Homo sapiens) (UniProt Q96RR4); assay: Inhibition of human CaMKK2 assessed as residual activity at 10 uM by kinome selectivity profiling analysis relative to control
[20] = Tmax in C57BL/6 mouse at 10 mg/kg, po measured for 0.5 to 12 htr by LC-MS/MS analysis; assay type: ADME, organism-based; settings: in vivo, time 0.5-12 hrs
[21] = Toxicity in BALB/c mouse xenografted with human K562 cells assessed as adverse effects at 10 to 20 mg/kg, IG for 11 days treated on every 3 to 4 days; assay type: organism-based; settings: in vivo, po, 264 h, dose 10-20 mg/kg, time 11 day
Cytochrome P450 2D6 = Cytochrome P450 2D6 (Homo sapiens, UniProt P10635); assay: Inhibition of CYP2D6 in human liver microsomes using dextromethorphan as substrate preincubated with compound followed by substrate addition measured after 10 mins in presence of NADPH by LC-MS/MS analysis; assay type: ADME, Microsome
Sequence of Cytochrome P450 2D6 (P10635 whole entry): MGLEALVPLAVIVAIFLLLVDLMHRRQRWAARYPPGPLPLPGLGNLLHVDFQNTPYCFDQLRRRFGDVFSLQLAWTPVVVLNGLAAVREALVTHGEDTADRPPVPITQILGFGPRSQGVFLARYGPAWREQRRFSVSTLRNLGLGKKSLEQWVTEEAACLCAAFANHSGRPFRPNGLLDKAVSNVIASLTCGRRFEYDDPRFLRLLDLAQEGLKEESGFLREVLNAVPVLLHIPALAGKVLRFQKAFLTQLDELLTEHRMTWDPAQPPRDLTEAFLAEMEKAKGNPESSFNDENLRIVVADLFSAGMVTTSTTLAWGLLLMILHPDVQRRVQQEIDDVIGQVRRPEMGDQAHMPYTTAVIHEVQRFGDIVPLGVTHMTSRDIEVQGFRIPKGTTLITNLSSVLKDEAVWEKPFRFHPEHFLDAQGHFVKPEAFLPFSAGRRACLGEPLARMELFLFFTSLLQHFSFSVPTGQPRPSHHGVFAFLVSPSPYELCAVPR

HEK-293T = assay: Effect on mitochondrial membrane potential in HEK293T cells at 10 uM incubated for 24 hrs by MitoTracker Red probe based analysis; assay type: toxicity, cell-based; settings: human
SW-620 = assay: cells; settings: Homo sapiens
[22] = Solubility of compound in 0.01 M PBS at pH 7.4 assessed as fold increase equilibrated for 12 hrs by UV spectrophotometry relative to BI 2536; assay type: physicochemical; settings: buffer, pH 7.4, 12 h
[23] = Effect on F-actin cytoskeleton in HEK293T cells at 10 uM incubated for 24 hrs by immunofluorescence based analysis; assay type: toxicity, cell-based; settings: human, hek-293t
[24] = Stability of compound in human hepatocytes; assay type: ADME, cell-based, Hepatocyte
[25] = Metabolic stability in dog liver microsomes assessed as intrinsic clearance preincubated for 5 mins followed by NADPH addition by LC-MS/MS analysis; assay type: ADME, Canis lupus familiaris, Microsome; settings: read-out: CLH
[26] = Selectivity ratio of IC50 for inhibition of human PLK2 using ATF2 as substrate to IC50 for inhibition of human PLK1 using ATF2 as substrate
[27] = Metabolic stability in human liver microsomes assessed as intrinsic clearance preincubated for 5 mins followed by NADPH addition by LC-MS/MS analysis; assay type: ADME, Microsome; settings: read-out: CLH
Cytochrome P450 3A4 = Cytochrome P450 3A4 (Homo sapiens, UniProt P08684); assay: Inhibition of CYP3A4 in human liver microsomes using midazolam as substrate preincubated with compound followed by substrate addition measured after 5 mins in presence of NADPH by LC-MS/MS analysis; assay type: ADME, Microsome
Sequence of Cytochrome P450 3A4 (P08684 whole entry): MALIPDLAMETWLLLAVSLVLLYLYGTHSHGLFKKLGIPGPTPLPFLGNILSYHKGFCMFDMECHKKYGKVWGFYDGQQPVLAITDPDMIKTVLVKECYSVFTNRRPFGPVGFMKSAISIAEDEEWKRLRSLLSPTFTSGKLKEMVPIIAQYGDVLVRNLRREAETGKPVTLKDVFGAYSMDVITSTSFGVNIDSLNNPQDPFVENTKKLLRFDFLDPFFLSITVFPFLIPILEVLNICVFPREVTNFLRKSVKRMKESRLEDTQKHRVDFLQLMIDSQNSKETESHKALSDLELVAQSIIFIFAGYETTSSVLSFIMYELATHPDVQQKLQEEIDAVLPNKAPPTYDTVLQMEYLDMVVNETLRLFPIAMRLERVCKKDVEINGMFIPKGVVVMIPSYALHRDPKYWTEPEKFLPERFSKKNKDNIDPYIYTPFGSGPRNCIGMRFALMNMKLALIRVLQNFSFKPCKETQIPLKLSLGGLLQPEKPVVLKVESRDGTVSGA

K562 [28] = assay: cells; settings: Homo sapiens

T1 sequence (P53350 whole entry): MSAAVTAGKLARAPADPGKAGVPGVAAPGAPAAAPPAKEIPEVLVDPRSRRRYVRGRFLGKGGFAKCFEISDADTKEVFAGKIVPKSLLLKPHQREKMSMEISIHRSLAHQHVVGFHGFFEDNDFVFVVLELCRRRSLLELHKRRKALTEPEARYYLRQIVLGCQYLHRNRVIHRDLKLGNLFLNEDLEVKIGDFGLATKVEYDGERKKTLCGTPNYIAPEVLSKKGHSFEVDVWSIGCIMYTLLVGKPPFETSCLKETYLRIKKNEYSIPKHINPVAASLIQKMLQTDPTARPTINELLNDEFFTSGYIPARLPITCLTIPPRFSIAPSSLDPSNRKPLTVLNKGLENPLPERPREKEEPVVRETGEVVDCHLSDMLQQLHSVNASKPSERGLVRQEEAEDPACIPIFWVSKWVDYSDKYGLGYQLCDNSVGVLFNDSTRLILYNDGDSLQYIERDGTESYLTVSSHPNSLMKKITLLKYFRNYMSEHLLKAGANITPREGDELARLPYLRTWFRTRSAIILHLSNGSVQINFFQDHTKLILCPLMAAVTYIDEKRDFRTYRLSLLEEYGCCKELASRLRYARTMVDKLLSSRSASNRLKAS

CC[C@@H]1C(=O)N(C)c2cnc(Nc3cc(N4CCN(C)CC4)cc(Cl)c3OCCCO)nc2N1C1CCCC1
Activity [1]: -2%
IC50 (Cytochrome P450 2C19): 1900 nM
Cmax [2]: 328 ng/mL
Activity [3]: Non-toxic
AUC(0-inf) [4]: 825 ng·h/mL
half-life [5]: 17.3 min
IC50 [6]: 20 nM
Activity [7]: 80%
IC50 (HL-60): 59 nM
Activity [8]: Non-toxic
half-life [9]: 35.4 min
IC50 (Cytochrome P450 2B6): > 10000 nM
Tmax [10]: 4.98 min
IC50 (Cytochrome P450 2C9): 9600 nM
Activity (K562 [11]): Dose-dependent-effect; Demonstrated Comparable Or Remarkably Improved Therapeutic Efficacy Compared To Bi 2536 At 10 Mg/Kg (I.P.)
IC50 (CCRF-CEM): 41 nM
Activity [12]: Non-toxic
IC50 [13]: > 10000 nM
Activity [14]: 11%
MRT last [15]: 120 min
clearance [16]: 91 mL/min/kg
IC50 [17]: 44200 nM
Activity [18]: 129%
Activity [19]: 73%
Tmax [20]: 45 min
Activity [21]: Non-toxic
IC50 (Cytochrome P450 2D6): > 10000 nM
Activity (HEK-293T): Non-toxic
IC50 (SW-620): 8.2 nM
fold change (FC) [22]: > 2
Activity [23]: Non-toxic
Stability [24]: Stable
CLint scaled [25]: 474 mL/min/kg
ratio [26]: > 601
CLint scaled [27]: 85.6 mL/min/kg
IC50 (Cytochrome P450 3A4): > 10000 nM
IC50 (K562 [28]): 0.08 nM
